In article PMC9511493, “2-(Fluoromethoxy)-4′-(S-methanesulfonimidoyl)-1,1′-biphenyl (UCM-1306), an Orally Bioavailable Positive Allosteric Modulator of the Human Dopamine D1 Receptor for Parkinson’s Disease” (Journal of Medicinal Chemistry, 2022):
Values joined by “and” are separate entries in the source; they are usually repeats but may differ in a detail not shown here. Equal entries are not always repeated. “Also recorded” adds a separate entry of the source. Where two headings read alike, the source gives them in different places.

Experiments:
Assay type in all cases: in vivo, mouse
[1] = tested on: C57BL/6J mice; assay: cocaine-induced hyperlocomotion assay; conditions: 1 mg/kg ip
Procedure: The experiment was conducted in adherence to the European Communities Council Directive (86/609/ECC) and Spanish regulations (BOE 252/34367-91, 2005) for the use of laboratory animals. The assay was performed according to a previously reported method[57] using 3 month old male mice with C57BL/6J background, and 8 mice were used for each experimental condition. All mice were handled and habituated to the injection procedures once per day for 5 days prior to behavioral testing. Experiments were carried out between 8:00 and 20:00, and the animals were acclimated to the experimental room for 30 min each day. Performance in the open field was recorded by a computer-based video tracking system (Smart v2.5, Panlab, Barcelona, Spain). Four open fields (50 × 50 × 50 cm, Panlab) with gray backgrounds were used, and the maximum light intensity in the center of the open field was 100 lux. Animals received a dose of 26 (1 mg/kg, ip) in a volume of 20 mL/kg of sterile saline as the vehicle, 15 min prior to a dose of cocaine (20 mg/kg, sc). Five min after cocaine injection, animals were placed in the open field and locomotion was measured at […] along a 30-min period of analysis. Horizontal locomotion was measured as total distance traveled (cm).

[2] = plasma, brain and CSF levels after a single oral dose in mice
Procedure: Prior to the evaluation of the new D1R PAM 26 in animal models, the in vivo cerebrospinal fluid (CSF) and brain permeability were studied. […] Concentrations in the CSF and brain were quantifiable up to 4 h. Brain-to-plasma concentration ratios were in the range of 0.55–1.15 between 0.5 and 4 h and CSF-to-plasma concentration ratio in the range of 0.13–0.21 between 0.5 and 4 h.
Figure 5 Compound levels in the plasma, brain, and CSF of mouse administered with 5 mg/kg (po) of compound 26. Horizontal dotted line indicates the EC50 value of the compound.

[3] = plasma and brain concentrations in the locomotor activity study; conditions: 30 mg/kg po; for concentration at 30 min / concentration at 60 min: male, C57BL/6, mouse, po, 30 mg/kg
Procedure: Regarding the PD model, reserpine is an alkaloid known to induce hypomobility/akinesia and rigidity, and reserpinized rodents are widely used as a preclinical model for PD.
The study was carried out in male C57BL/6 wild-type (22–25 g) mice that were acclimatized for 5 days. Animals were randomized based on body weight into six groups (G1 to G6), ten animals per group (n = 10), being group G1 the naïve control group. Animals were fed with standard diet ad libitum. Animals were dosed with subcutaneous administration of reserpine (2.5 mg/kg in DMSO/saline) and after 20 h they were treated with a vehicle (10 mL/kg, po), compound 26 (30 mg/kg, po), L-DOPA (100 or 400 mg/kg, ip) + carbidopa (100 mg/kg, ip) and/or their combination, as indicated in Figure 7. The vehicle employed for compound 26 administration was 5% NMP + 5% solutol HS-15 + 90% normal saline. L-DOPA and carbidopa were administered 30 min prior to start of locomotor activity recording. Compound 26 was administered and 15 min later, mice were placed in the locomotor activity cage to measure the locomotor activity for 60 min (total distance travelled) using ALL Maze version 0.5 automated software enabled with video tracking system. After the activity sessions, raw data were reduced using ALL Maze 5.0 software and Microsoft Excel. Statistical analysis was done with GraphPad Prism-5 using one way ANOVA followed by Dunnett’s test/Tukey’s post hoc test and/or two-way ANOVA followed by Bonferroni post hoc test. Data were considered statistically significant, if P value was less than 0.05. […]
Table S2.Plasma and brain concentrations achieved for compound 26in the locomotor
Plasma concentration (ng/mL) Brain concentration (ng/mL)
Animal 30 min 60 min Animal 30 min 60 min

- CSF-to-plasma free concentration ratio ([2]; 5 mg/kg po): approximately 1
- time up to which CSF concentrations were quantifiable ([2]; 5 mg/kg po, male BALB/c mice): 4 h
- time up to which brain concentrations were quantifiable ([2]; 5 mg/kg po, male BALB/c mice): 4 h
- time up to which plasma concentrations were quantifiable ([2]; 5 mg/kg po, male BALB/c mice): 8 h
- Kp ([2]; male, BALB/c, mouse, CSF and plasma, 5 mg/kg po, between 0.5 and 4 h, read-out: CSF-to-plasma concentration ratio): 0.13 to 0.21
- Kp at 4 h ([2]; male, BALB/c, mouse, brain and plasma, 5 mg/kg po, between 0.5 and 4 h, read-out: brain-to-plasma concentration ratio): 0.55 to 1.15
- Tmax at 8 h ([2]; mouse, plasma, 5 mg/kg single oral dose, male BALB/c mice): 30 min
- Brain concentration (ng/mL), individual animals 1-3 ([3]; 30 min): 7185.33 ng/mL and 5537.43 ng/mL
- Plasma concentration (ng/mL), individual animals 1-3 ([3]; 30 min): 9994.87 ng/mL and 7753.96 ng/mL
- concentration at 30 min ([3]; brain, 30 min, read-out: Brain concentration (ng/mL), individual animals 1-3): 7340 ng/mL
- concentration at 30 min ([3]; brain, 30 min, read-out: Brain concentration (ng/mL), mean): 6690 ng/mL
- concentration at 60 min ([3]; brain, 60 min, read-out: Brain concentration (ng/mL), mean): 4120 ng/mL
- concentration at 30 min ([3]; plasma, 30 min, read-out: Plasma concentration (ng/mL), individual animals 1-3): 9690 ng/mL
- concentration at 30 min ([3]; plasma, 30 min, read-out: Plasma concentration (ng/mL), mean): 9150 ng/mL
- concentration at 60 min ([3]; plasma, 60 min, read-out: Plasma concentration (ng/mL), mean): 4860 ng/mL
Compound: CS(=N)(=O)c1ccc(-c2ccccc2OCF)cc1 (stereo not shown) [Compound 26, 2-(Fluoromethoxy)-4′-(S-methanesulfonimidoyl)-1,1′-biphenyl]
- effect on cocaine-induced hyperlocomotion ([1]; 15 min before cocaine 20 mg/kg sc): potentiated the hyperlocomotion induced by cocaine; also recorded: enhanced cocaine (20 mg/kg, sc)-induced hyperlocomotion
- intrinsic locomotor activity, compound alone ([1]; no cocaine): no intrinsic locomotor activity
- Brain concentration (ng/mL), individual animals 1-3 ([3]; 60 min): 5552.94 ng/mL and 2620.14 ng/mL and 4178.34 ng/mL
- Plasma concentration (ng/mL), individual animals 1-3 ([3]; 60 min): 6716.72 ng/mL and 6187.65 ng/mL and 1662.96 ng/mL
